The values that follow are results of earlier work, collected in US7759312B2 (priority 2005, dated 2010).

For data set [1] the following is noted: patients with acromegaly.
The subject of another data set is IGF-1. The conditions noted are these: acromegaly.
A further data set deals with GH. The conditions noted are these: following a subcutaneous octreotide injection.

As for “L-cysteinamide, D-phenylalanyl-L-cysteiny-L-phenylalanyl-D-tryptophyl-L-lysyl-L-threonyl-N-[2-hydroxy-1-(hydroxymethyl)propyl]-,cyclic(2→7)-disulfide; [Octreotide, L-cysteinamide, D-phenylalanyl-L-cysteiny-L-phenylalanyl-D-tryptophyl-L-lysyl-L-threonyl-N-[2-hydroxy-1-(hydroxymethyl)propyl]-,cyclic(2→7)-disulfide; [R—(R*,R*)]]”, in data set [1], the “mean percent of the drug bound” value is recorded as 41.2% and the total body clearance is given as 18 L/h. Moreover, in data set [1] (100 mcg dose, subcutaneous), the mean peak concentration is on record as 2.8 ng/mL and the “time to mean peak concentration” value is 0.7 h. Also, in the data set with IGF-1, the “patients with normalization of IGF-1 levels” value is given as “up to 60%”. The “time to decrease of GH levels” value in the data set with GH is on record as “within two hours”.
